Measurements published in article PMC6069857, “Effects of novel HDAC inhibitors on urothelial carcinoma cells” (Clinical Epigenetics, 2018).
pIC50: −log10 of the molar value.

Experiments:
[1] = biological target: HDAC9 (Homo sapiens, UniProt Q9UKV0); assay: In vitro fluorescence-based HDAC inhibition assay (Reaction Biology); details: read-out: IC50 HDAC9; experiment performed once
[2] = biological target: HDAC8 (Homo sapiens, UniProt Q9BY41); assay: as above; details: read-out: IC50 HDAC8; experiment performed once
Sequence of HDAC8 (Q9BY41 whole entry): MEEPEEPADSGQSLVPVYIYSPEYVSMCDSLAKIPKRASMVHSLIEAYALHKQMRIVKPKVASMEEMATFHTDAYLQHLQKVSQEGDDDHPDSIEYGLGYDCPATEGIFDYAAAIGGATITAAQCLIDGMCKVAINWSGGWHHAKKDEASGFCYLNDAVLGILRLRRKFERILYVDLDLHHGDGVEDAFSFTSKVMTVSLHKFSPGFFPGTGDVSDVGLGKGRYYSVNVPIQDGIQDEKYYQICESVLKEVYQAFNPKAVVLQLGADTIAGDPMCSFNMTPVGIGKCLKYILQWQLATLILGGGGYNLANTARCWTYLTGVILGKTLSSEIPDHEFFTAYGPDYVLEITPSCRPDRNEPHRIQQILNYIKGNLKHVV

[3] = test system: UCCs; assay: Western blot of acetylated α-tubulin and histones H3/H4; type: cell-based, human; details: 48 h, 19i 1 or 2 μM
Experimental: Total protein extraction, purification of histones, and Western blot analysis were performed as previously described. Briefly, cells were incubated for 30 min on ice in RIPA-buffer (150 mM NaCl, 1% Triton X-100, 0.5% desoxycholate, 1% Nonidet P-40, 0.1% SDS, 1 mM EDTA, 50 mM TRIS (pH 7.6)) containing 10 μl/ml protease inhibitor cocktail (#P-8340, Sigma Aldrich, St. Louis, MO). Histones were extracted for detection of histone H3 and H4 acetylation by a modified published protocol employing sulfuric acid extraction and TCA-precipitation. Concentrations of total protein and histones were determined by BCA protein assay (Thermo Fisher Scientific, Carlsbad, CA). Subsequently, total cell proteins (15 μg) or extracted histones (2 μg) were separated by SDS-PAGE (total proteins 10–12% gels, histones 15% gels), transferred to PVDF membranes (Merck Millipore, Berlin, Germany), and were incubated with primary antibodies (at RT for 1 h or 4 °C overnight, see Additional file 3: Table S2) following blocking with 5% non-fat milk or BSA (bovine serum albumin) in TBST (150 mM NaCl, 10 mM TRIS, pH 7.4 and 0.1% Tween-20). For signal detection, membranes were incubated with a suitable horseradish peroxidase-conjugated secondary antibody (see Additional file 2: Table S1) at RT for 1 h and signals were visualized by SuperSignal™ West Femto (Thermo Fisher Scientific, Carlsbad, CA) and WesternBright Quantum kit (Biozym, Hessisch Oldendorf, Germany).

[4] = test system: three UCCs (VM-CUB1, UM-UC-3, 639-V); assay: qRT-PCR of TS and p21CIP1 mRNA; type: cell-based, human; details: 19i 2 μM, 24 or 48 h, all three UCCs
Experimental: Total cell RNA was isolated by the Qiagen RNeasy Mini Kit (Qiagen, Hilden, Germany) according to the manufacturer’s protocol, and cDNA was synthesized using QuantiTect Reverse Transcription Kit (Qiagen, Hilden, Germany) with an extended incubation time of 30 min at 42 °C as previously described. Target mRNA expression was measured by qRT-PCR with QuantiTect SYBR Green RT-PCR Kit (Qiagen, Hilden, Germany) on the LightCycler® 96 Real-Time PCR system with software version 1.1 (Roche Diagnostics, Rotkreuz, Switzerland). All used primers, comprising QuantiTect Primer assays (Qiagen, Hilden, Germany), self-designed target primers, and primers for the reference housekeeping gene TBP (TATA-box binding protein), are listed in Additional file 2: Table S1.

[5] = test system: three UCCs (VM-CUB1, UM-UC-3, 639-V); assay: High-content analysis-based fluorescent live/dead assay, three UCCs together; type: cell-based, human; details: HCA live/dead assay, 72 h
Experimental: Live and dead cells were assayed by high-content analysis (HCA). […] After 72 h of treatment, cells were stained with a mixture of Hoechst 33342 (Sigma Aldrich, St. Louis, MO), calcein AM (Merck Millipore, Germany), and propidium iodide (Santa Cruz Biotechnology, Heidelberg) for cell nuclei, live and dead cells. The staining solution was replaced by PBS after 20 min. Images were acquired using ArrayScan XTI Live High Content Platform (Thermo Fisher Scientific Inc., USA) using excitation filters of 386, 485, and 560 nm for Hoechst 33342, calcein AM, and propidium iodide, respectively. The results were analyzed using HCS Studio Cellomics Scan (Thermo Fisher Scientific Inc., USA).

Sequence of HDAC9 (Q9UKV0 whole entry): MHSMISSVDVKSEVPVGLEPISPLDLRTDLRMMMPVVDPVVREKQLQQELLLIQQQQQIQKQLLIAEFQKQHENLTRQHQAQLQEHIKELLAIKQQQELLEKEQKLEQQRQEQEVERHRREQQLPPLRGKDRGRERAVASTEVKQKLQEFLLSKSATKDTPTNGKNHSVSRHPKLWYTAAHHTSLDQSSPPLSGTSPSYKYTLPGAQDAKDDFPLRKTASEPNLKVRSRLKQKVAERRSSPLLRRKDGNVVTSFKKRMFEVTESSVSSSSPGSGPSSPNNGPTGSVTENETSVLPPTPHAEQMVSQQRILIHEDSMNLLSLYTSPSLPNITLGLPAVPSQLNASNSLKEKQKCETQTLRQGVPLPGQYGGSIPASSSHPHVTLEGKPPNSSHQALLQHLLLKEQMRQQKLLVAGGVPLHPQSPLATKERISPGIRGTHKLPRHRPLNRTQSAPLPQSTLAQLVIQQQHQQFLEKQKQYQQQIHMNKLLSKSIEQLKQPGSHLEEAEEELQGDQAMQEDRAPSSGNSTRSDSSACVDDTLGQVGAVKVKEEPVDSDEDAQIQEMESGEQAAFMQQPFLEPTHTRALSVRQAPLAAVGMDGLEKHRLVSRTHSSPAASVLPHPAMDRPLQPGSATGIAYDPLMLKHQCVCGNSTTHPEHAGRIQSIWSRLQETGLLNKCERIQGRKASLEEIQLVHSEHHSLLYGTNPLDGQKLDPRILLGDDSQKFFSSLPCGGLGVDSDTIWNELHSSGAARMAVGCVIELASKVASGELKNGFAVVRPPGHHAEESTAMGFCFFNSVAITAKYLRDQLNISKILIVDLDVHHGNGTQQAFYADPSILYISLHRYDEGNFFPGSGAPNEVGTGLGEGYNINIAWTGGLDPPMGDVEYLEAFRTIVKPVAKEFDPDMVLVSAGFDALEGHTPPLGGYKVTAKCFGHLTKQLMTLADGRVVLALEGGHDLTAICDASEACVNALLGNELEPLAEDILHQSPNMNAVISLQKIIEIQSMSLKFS

## Cc1cc(C)cc(C(=O)NOCCCCCC(=O)NO)c1 [19i]
[1]
  pIC50: 3.70
[2]
  pIC50: 5.55
[3]
  global acetylation of histones H3 and H4: enhanced
[3]; SAHA 2.5 μM
  acetylation of α-tubulin: strongly induced
[4]
  p21CIP1 mRNA expression: increased
  thymidylate synthase (TS) mRNA expression: decreased
[5]
  CC50: < 1 µM
